Patent US10869929B2, “Phosphonate linkers and their use to facilitate cellular retention of compounds” (priority 2016, dated 2020)

Assays:
[1] = molecular target: glucocorticoid receptor (Homo sapiens (Human), UniProt P04150); test: PolarScreen Glucocorticoid Receptor Competitor Assay (GR binding); conditions: fluormone GS red, GR full length protein; read-out: GR Bind IC50
Procedure: The potency of binding to glucocorticoid receptor by small molecule compounds was measured with the PolarScreen™ Glucocorticoid Receptor Competitor Assay Kit, Red (Life Technology, Catalog #A15898) according to the procedure in the kit. In brief, after compounds were diluted and transferred into assay plates, the fluormone GS red and GR full length protein were subsequently added into the assay plates, along with the positive and negative controls. The samples were mixed on a shaker for 1 minute and then the plates were incubated at room temperature for 2-4 hours with minimal light exposure. The plates were read with an Envision and the relative fluorescent signals were calculated. The data were plotted in GraphPad Prism and the EC50 values were calculated with non-linear regression curve fit of the data in GraphPad Prism.

[2] = tested on: GILZ gene; test: GILZ gene assay (qPCR, HUT78 / 786-O cells); type: cell-based
Procedure: GILZ gene assays were conducted as follows. HUT78 cells were cultured in IMEM plus 20% heat inactivated FBS and cell density was maintained between 0.1 to 1.2 million/mL. 786-O cells were cultured in RPMI plus 10% heat inactivated FBS. Actively growing cells were harvested and resuspended in HBSS with 2% FBS at 1.1 million cells per mL then dispensed to 384-well V-bottom plates at 45 μL per well. Serially diluted ADC solution was added to the cell plate (5 μL per well) and mixed for 2 min. Cells were then cultured at 37° C., at 5% CO2 for a designated time before supernatant was removed. Cells were harvested in lysis buffer from the Cells-to-Ct kit (40 μL, Life Technologies, 4391851C) following the supplier's protocol and mixed for 10 min followed by addition of 5 μL per well of stop solution from the kit. cDNA was synthesized with a reverse transcription kit (Life Technologies, 4391852C) follow by qPCR using the TaqMan gene expression master mix (Life Technologies, 4369016) with GILZ gene assay (Life Technologies, Hs00608272_m1) and GAPDH assay (Hs2758991_g1) in a duplex format with 3-4 technical replicates.

[3] = tested on: MDCKII cells; test: Apparent permeability in MDCKII cells; type: in vitro ADME; conditions: 1 μM, t=3 hr, average of A to B and B to A Papp
Procedure: Determination of apparent permeability was as follows. MDCKII cells (kindly provided by the Netherlands Cancer Institute, under a licensing agreement) were seeded on to 96-well transwell culture plates (Millipore Corp, Billerica, Mass.) and used in experiments after five days in culture. […] Substrate solution (150 μL) was added to either the apical (A) or the basolateral (B) compartment of the culture plate, and buffer (150 μL; HBSS, 10 mM HEPES, pH 7.4) with 10 μM cyclosporine A was added to the compartment opposite to that containing the substrate. At t=3 hr, 50 μL samples were removed from both sides of monolayers dosed with test compound and placed in 96 well plates, 50 μL internal standard (1 μM labetolol) and 100 μL HBSS was added to the samples. Samples were analyzed by LC/MS/MS using an Applied Biosystems SCIEX API 5000 triple quadruple mass spectrometer (Concord, ON, Canada) with a TurbolonSpray ion source in the positive ion mode. A Thermo Scientific Transcend LX-2 system (Franklin, Mass.) was coupled to the API 5000 with a flow rate of 800 μL/min to direct sample into the mass spectrometer.
Papp was expressed as 10^−6 cm/s.

[4] = tested on: ZBTB16 mRNA; test: Up-regulation of ZBTB16 mRNA in primary human B cells; type: cell-based
Procedure: The carrier solution for all ADCs and naked antibodies was 50 mM histidine pH 6.0, 100 mM NaCl and 5% trehelose. To assure consistency across experiments, ADCs were thawed on ice, dispensed to small aliquots, frozen to −80° C., and those aliquots were then used for experiments with unused material discarded at the end of the day. For all in vitro studies in this report, none of the read outs were measurably different in the presence or absence of the carrier solution. Nevertheless, the final concentration of antibody carrier solution was maintained constant at 1% v/v by serially diluting antibody solution prior to addition to the assay mixture and adding carrier solution to control wells.
For the studies of ADCs bearing reduced permeability payloads frozen human CD19+ B cells purchased from Precision Biosciences (catalog #84400, donor #13108) were thawed and re-suspended in RPMI1640 plus 10% heat-inactivated FBS (cell culture medium) at 1 million cells/mL. […] B cells were bulk treated in a 96-well block and subsequently dispensed to 96 well plates (100 μL and […] cells per well) and incubated at 37° C., 5% CO2 for 18 or 40 hr. Control wells containing equal percentages of DMSO (0.1%) and ADC buffer (1%) as sample wells were included. Cells were transferred to a 96 well v-bottom plate and spun at 500×g for 5 min. Medium was removed and cells were lysed in 150 μL RLT buffer containing beta-mercaptoethanol. RNA was isolated (RNeasy 96 kit, Qiagen, Cat #74181) and cDNA was synthesized (iScript cDNA Synthesis Kit, BioRad, Cat #170-8891) according to the supplier's protocol. Quantitative PCR was performed on Applied Biosystem's 7900 HT Real-Time PCR System to measure expression of ZBTB16 (Life Technologies, Hs00957433_m1) and GAPDH (Life Technologies, Hs02758991_g1) in duplex format.
The ΔΔCt method was used to calculate fold change of expression of ZBTB16 relative to control sample, using 3 replicates per treatment condition. For free cell impermeable compounds, B cells were seeded at 100,000 cells/well in 90 μL in a 96-well flat bottom plate. Three fold serial dilutions were performed in DMSO, subsequent intermediate 10× stocks were made in tissue-culture medium and then added to the cell plate (10 μL/well). Cells were incubated at 37° C., 5% CO2 for 18 hr, harvested and processed for PCR as described above. EC50 curves were calculated using Graph Pad Prism 6 software using nonlinear fit (agonist) vs. response-variable slope (four parameters) calculation.
Potency and maximum activity of reduced permeability glucocorticoids (free payload) and the corresponding anti-CD74-drug conjugates on up-regulation of ZBTB16 mRNA levels in primary human B cells in vitro.

Sequence of glucocorticoid receptor (P04150 whole entry): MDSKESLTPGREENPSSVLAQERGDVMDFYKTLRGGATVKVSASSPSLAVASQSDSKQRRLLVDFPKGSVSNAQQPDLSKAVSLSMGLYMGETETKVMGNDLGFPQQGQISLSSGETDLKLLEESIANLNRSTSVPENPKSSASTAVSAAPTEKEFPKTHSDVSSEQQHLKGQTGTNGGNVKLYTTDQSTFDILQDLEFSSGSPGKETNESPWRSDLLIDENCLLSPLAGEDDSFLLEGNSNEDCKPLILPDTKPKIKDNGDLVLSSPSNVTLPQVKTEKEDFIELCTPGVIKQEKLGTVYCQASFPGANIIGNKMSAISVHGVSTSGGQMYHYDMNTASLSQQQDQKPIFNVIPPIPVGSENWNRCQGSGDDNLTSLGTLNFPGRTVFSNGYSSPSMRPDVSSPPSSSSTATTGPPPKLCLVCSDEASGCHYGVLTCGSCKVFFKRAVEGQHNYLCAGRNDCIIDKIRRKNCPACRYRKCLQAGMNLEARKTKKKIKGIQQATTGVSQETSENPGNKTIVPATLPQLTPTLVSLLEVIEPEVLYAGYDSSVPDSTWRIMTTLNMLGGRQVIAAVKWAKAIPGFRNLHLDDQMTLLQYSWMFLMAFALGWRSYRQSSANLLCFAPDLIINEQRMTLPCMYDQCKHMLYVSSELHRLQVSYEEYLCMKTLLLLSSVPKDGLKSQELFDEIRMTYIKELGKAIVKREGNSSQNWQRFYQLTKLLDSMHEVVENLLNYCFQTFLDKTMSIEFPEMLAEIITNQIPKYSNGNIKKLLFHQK

## C[C@@H]1C[C@H]2[C@@H]3C[C@H](F)C4=CC(=O)C=C[C@]4(C)[C@@]3(F)[C@@H](O)C[C@]2(C)[C@@]1(OC(=O)CCCCCCCCP(=O)(O)O)C(=O)SCF [Compound 18, (9-(((6S,8S,9R,10S,11S,13S,14S,16R,17R)-6,9-difluoro-17-(((fluoromethyl)thio)carbonyl)-11-hydroxy-10,13,16-trimethyl-3-oxo-6,7,8,9,10,11,12,13,14,15,16,17-dodecahydro-3H-cyclopenta[a]phenanthren-17-yl)oxy)-9-oxononyl)phosphonic acid]
[1]
  IC50: 0.0001 µM
[2]; at 10 uM
  GILZ Max: 65% (at
[2]; read-out: GILZ EC50
  EC50: 3.04 µM
[3]
  MDCK Permeability (cm × 10−6/sec): <0.9 cm × 10−6/sec
[4]
  ZBTB16 mRNA Max relative to free fluticasone: >77%
[4]; B-cell, free payload
  EC50: 3.2 µM
